From patent publication US20060074244A1, “Pyridinyl substituted (1,2,3,)triazoles as inhibitors of the tgf-beta signalling pathway” (priority 2002, published 2006)

Legend:
[1] = test system: TGF-β signalling (PAI-1 promoter-luciferase in HepG2 cells); assay: Cellular transcriptional assay (PAI-1 promoter luciferase reporter)
Method: The assay was performed in HepG2 cells stably transfected with the PAI-1 promoter (known to be a strong TGF-β responsive promoter) linked to a luciferase (firefly) reporter gene. The compounds were selected on their ability to inhibit luciferase activity in cells exposed to TGF-β. In addition, cells were transfected with a second luciferase (Renilla) gene which was not driven by a TGF-13 responsive promoter and was used as a toxicity control.
96 well microplates were seeded, using a multidrop apparatus, with the stably transfected cell line at a concentration of 35000 cells per well in 200 μl of serum-containing medium. These plates were placed in a cell incubator.
18 to 24 hours later (Day 2), cell-incubation procedure was launched. […] Each well contained only one candidate compound and its effect on the PAI-1 promoter was monitored.
Columns 11 and 12 were employed as controls. […] Column 11 was used to determine the ‘reference TGF-β induced firefly luciferase value’ against which values measured in the test wells (to quantify inhibitory activity) were compared. […]
12 to 18 hours later (day 3), the luciferase quantification procedure was launched. […] Following agitation (15 to 30 mins), luciferase activities of the plates were read in a dual-injector luminometer (BMG lumistar). […]

[2] = target: T1, recombinant GST-ALK5 (residues 198-503) (Homo sapiens, UniProt P36897); assay: Alk5 fluorescence polarization assay; format: binding; details: displacement of rhodamine green-labelled ligand, 10 nM ALK5; read-out: ALK5 receptor modulator activity (IC50)
T1 construct: assays using recombinant GST-ALK5 (residues 198-503)
T1 sequence (P36897 198-503): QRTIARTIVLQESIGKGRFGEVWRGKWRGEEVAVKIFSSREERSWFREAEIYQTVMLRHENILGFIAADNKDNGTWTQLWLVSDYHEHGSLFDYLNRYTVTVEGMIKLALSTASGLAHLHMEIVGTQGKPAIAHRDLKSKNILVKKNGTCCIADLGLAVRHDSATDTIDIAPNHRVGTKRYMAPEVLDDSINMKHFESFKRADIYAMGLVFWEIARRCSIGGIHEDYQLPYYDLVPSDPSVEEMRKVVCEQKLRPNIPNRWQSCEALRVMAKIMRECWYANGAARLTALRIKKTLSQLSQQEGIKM
Method: Assay 2 (Alk5 Fluorescence Polarization Assay)
Kinase inhibitor compounds conjugated to fluorophores, can be used as fluorescent ligands to monitor ATP competitive binding of other compounds to a given kinase. The increase in depolarization of plane polarized light, caused by release of the bound ligand into solution, is measured as a polarization/anisotropy value. This protocol details the use of a rhodamine green-labelled ligand for assays using recombinant GST-ALK5 (residues 198-503).
Assay buffer components: 62.5 mM Hepes pH 7.5 (Sigma H-4034), 1 mM DTT (Sigma D-0632), 12.5 mM MgCl2 (Sigma M-9272), 1.25 mM CHAPS (Sigma C-3023). […]
ALK5 was added to assay buffer containing the above components and 1 nM of the rhodamine green-labelled ligand so that the final ALK5 concentration was 10 nM based on active site titration of the enzyme. […] The plates were read immediately on a LJL Acquest fluorescence reader (Molecular Devices, serial number AQ1048) with excitation, emission, and dichroic filters of 485 nm, 530 nm, and 505 nm, respectively. The fluorescence polarization for each well was calculated by the Acquest reader and then imported into curve fitting software for construction of concentration response curves. The normalized response was determined relative to the high controls (1 μl DMSO in column 12, rows A-D) and the low controls (1 μl of control compound in column 12, rows E-H). […]

O=C1C=CCC1 [CPO, Cyclopentenone, reference compound]
firefly and renilla luciferase activities (toxicity control) ([1]; 500 μM CPO with TGF-β, relative to TGF-β only): around 50%

Cc1cccc(-c2[nH]nnc2-c2ccnc(-c3ccc(S(C)(=O)=O)cc3)c2)n1 [Example 1, 2-(4-Methanesulfonylphenyl)-4-(5-(6-methyl)-pyridin-2-yl-3H-[1,2,3]triazol-4-yl)-pyridine]
IC50 [2]: 26 nM
IC50 ([1]; Homo sapiens, HepG2, read-out: TGF-β cellular activity): 413 nM

Cc1cccc(-c2nn[nH]c2-c2ccnc(-c3ccc(CN4CCOCC4)cc3)c2)n1 [Example 4, 4-(4-{4-[5-(6-methyl-pyridin-2-yl)-3H-[1,2,3]triazol-4-yl]-pyridin-2-yl}-benzyl)-morpholine]
melting point: 110 °C
